Bridge positions count the residues as written; N and C are the ends. Peptide text beside a SMILES is read from it.
Columns and labels:
gastrointestinal transit = experiment: rat gastrointestinal transit (GIT) assay; assay type: in vivo, CD rats
Method: In order to determine whether the peptides increase the rate of gastrointestinal transit, the peptides and controls were tested using a murine gastrointestinal transit (GIT) assay (Moon et al. Infection and Immunity 25:127, 1979). In this assay, charcoal, which can be readily visualized in the gastrointestinal tract is administered to mice after the administration of a test compound. The distance traveled by the charcoal is measured and expressed as a percentage of the total length of the […].
Mice were fasted with free access to water for 12 to 16 hours before the treatment with peptide or control buffer. The peptides were orally administered at 1 μg/kg-1 mg/kg of peptide in buffer ([…] pH 7.5) 7 minutes before being given an oral dose of 5% Activated Carbon (Aldrich 242276-250G). Control mice were administered buffer only before being given a dose of Activated Carbon. After 15 minutes, the mice were sacrificed and their intestines from the stomach to the cecum were dissected. The total length of the intestine as well as the distance traveled from the stomach to the charcoal front was measured for each animal and the results are expressed as the percent of the total length of the intestine traveled by the charcoal front. All results are reported as the average of 10 mice±standard deviation. […] P-values are calculated using a two-sided T-Test assuming unequal variances. […]

[1] = tested on: abdominal response to colorectal distension; experiment: TNBS visceral hypersensitivity rat model (colorectal distension, EMG); assay type: in vivo, Wistar rats; conditions: 0.3 μg/kg and 3 μg/kg; given one hour before CRD
Method: Male Wistar rats (220-250 g) were premedicated with 0.5 mg/kg of acepromazine injected intraperitoneally (IP) and anesthetized by intramuscular administration of 100 mg/kg of ketamine. Pairs of nichrome wire electrodes (60 cm in length and 80 μm in diameter) were implanted in the striated muscle of the abdomen, 2 cm laterally from the white line. The free ends of electrodes were exteriorized on the back of the neck and protected by a plastic tube attached to the skin. Electromyographic (EMG) recordings were started 5 days after surgery. Electrical activity of abdominal striated muscle was recorded with an electroencephalograph machine (Mini VIII, Alvar, Paris, France) using a short time constant (0.03 sec.) to remove low-frequency signals (<3 Hz).
Ten days post surgical implantation, trinitrobenzenesulphonic acid ([…]) was administered to induce rectal inflammation. TNBS (80 mg kg^−1 in 0.3 ml 50% ethanol) was administered intrarectally through a silicone rubber catheter introduced at 3 cm from the anus under light diethyl-ether anesthesia, as described (Morteau et al. 1994 Dig Dis Sci 39:1239). […] Evaluation of rectal sensitivity, as measured by EMG, was performed before (1-2 days) and 3 days following rectal instillation of TNBS.
The number of spike bursts that corresponds to abdominal contractions was determined per 5 min periods. […]

chymotrypsin = target: T1, chymotrypsin (Bos taurus, UniProt P00766); experiment: in vitro proteolytic stability: chymotrypsin; assay type: in vitro ADME, bovine; conditions: 37° C., up to 24 h
T1 construct: purchased Sigma-Aldrich C6423; host or cells: bovine pancreas
Method: (§1) All samples were analyzed by LC/MS
Samples were returned to the 37° C. water bath.

[2] = stability in simulated gastric fluid (SGF); assay type: in vitro ADME; conditions: pH 1, 37° C., up to 3 h
Method: as §1
The reference control sample was diluted 10-fold (1000 μL volume) in distilled water for a final concentration of 10 μM and chilled on ice. At each time point, samples were diluted 10-fold (1000 μL volume) in distilled water for an expected concentration of 10 μM, and chilled on ice, until analysis.

[3] = tested on: intestinal transit after abdominal surgery; experiment: rat model of postoperative ileus; assay type: in vivo, CD rats; conditions: oral 10 μg/kg, 20 minutes after charcoal meal
Method: Female CD rats were used to test the effect of SEQ ID NO:3 on delayed transit induced by abdominal surgery and manual manipulation of the small intestine. Groups of at least nine rats underwent abdominal surgery under isoflurane anesthesia. Surgery consisted of laparotomy and 5 minutes of gentle manual intestinal massage. Following recovery from anesthesia, rats were dosed orally with either 10 μg/kg SEQ ID NO:3 or vehicle (20 mM Tris) in a volume of 300 μl. 1 hour after dosing, intestinal transit rate was measured. Animals were again dosed with 300 μl of the test article followed immediately by 500 μl of a charcoal meal (10% charcoal, 10% gum arabic in water). To calculate the distance of the small intestine traveled by the charcoal front, after 20 minutes, the total length of the intestine as well as the distance traveled from the stomach to the charcoal front were measured for each animal. Animals dosed with 10 μg/kg SEQ ID NO:3 experienced an increase in transit following abdominal surgery compared to animals dosed with vehicle alone (FIG. 16). Charcoal transit in SEQ ID NO:3 dosed animals was measured at 37.3+3.0% (mean±SEM) of the small intestine compared with vehicle at 24.7+1.4% (mean±SEM) of the small intestine.

[4] = tested on: ligated loops of intestine; experiment: ligated intestinal loop model in rats; assay type: in vivo, CD rats; conditions: center loop of the rat small intestine; 5 μg
Method: The loop was roughly centered and was a length of 1-3 cm. The loops were injected with 100 μl of either SEQ ID NO:3 (5 μg) or vehicle (20 mM Tris, pH 7.5 or Krebs Ringer, 10 mM Glucose, HEPES buffer (KRGH)). Following a recovery time of 90 minutes the loops were excised. Weights were recorded for each loop before and after removal of the fluid contained therein. The length of each loop was also recorded. A weight to length ratio (W/L) for each loop was calculated to determine the effects of SEQ ID NO:3 on secretion.
To determine the effect of SEQ ID NO:3 on cGMP activity, fluid from the loop was collected in ice-cold trichloracetic acid (TCA) and stored at −80° C. for use in an assay to measure cGMP levels in the fluid. Intestinal fluid samples were TCA extracted, and cyclic GMP was measured by EIA according to procedures outlined in the Cayman Chemical Cyclic GMP EIA kit (Cayman Chemical, Ann Arbor, Mich.) to determine cyclic GMP levels in the intestinal fluid of the mouse in the presence of either SEQ ID NO:3 or vehicle.
In the case of the rat, however four loops of intestine were surgically ligated. The first three loops were distributed equally in the small intestine and the fourth loop was located in colon. Loops were 1 to 3 centimeters, and were injected with 200 μL of either SEQ ID NO:3 (5 μg) or vehicle (Krebs Ringer, 10 mM glucose, HEPES buffer (KRGH)).

C[C@@H]1NC(=O)[C@@H]2CCCN2C(=O)[C@H](CC(N)=O)NC(=O)[C@@H]2CSSC[C@H](N)C(=O)N[C@H]3CSSC[C@H](NC1=O)C(=O)N[C@@H]([C@@H](C)O)C(=O)NCC(=O)N[C@H](C(=O)N[C@@H](Cc1ccc(O)cc1)C(=O)O)CSSC[C@H](NC(=O)[C@H](Cc1ccc(O)cc1)NC(=O)[C@H](CCC(=O)O)NC3=O)C(=O)N2 [SEQ ID NO:3] (H-CCEYCCNPACTGCY-OH; disulfide 1-6, 2-10, 5-13; N-terminus and C-terminus assumed)
intestinal transit, dose dependence (gastrointestinal transit; female rats, similar effects in male rats, FIG. 4e): increases in a dose dependent manner | intestinal transit (gastrointestinal transit; rat GIT assay, FIG. 4d): intestinal transit increases | abdominal response to colorectal distension after TNBS [1]: Significant decreases in abdominal response | Cleavage of SEQ ID NO: 3 by proteolytic substance (chymotrypsin): not detectable | Cleavage of SEQ ID NO: 3 by proteolytic substance [2]: not detectable | Charcoal transit, of the small intestine (mean±SEM) [3]: 37.3 ± 3.0% | cGMP levels in ligated loop [4]: increases | secretion in ligated loop [4]: increases
